The text below walks through data of ChEMBL document CHEMBL1133694, “Hydroxamic acid derivatives as potent peptide deformylase inhibitors and antibacterial agents” (J Med Chem, 2000).

The structures appear in SMILES notation. Values after ≈ are worked out from the molar mass of the structure shown.

One assay deals with Bacillus subtilis. In words: In vitro antibacterial activity against Bacillus subtilis ATCC 585969. It is filed as functional.
A further assay concerns Chlamydia pneumoniae. In words: In vitro antibacterial activity against Chlamydia pneumoniae AR-39. It is filed as functional.
Assay [1] deals with Escherichia coli. In words: In vitro antibacterial activity against Escherichia coli ATCC 25922. It is filed as functional.
Assay [2] has as its system Escherichia coli. In words: In vitro antibacterial activity against isolated Escherichia coli DC2. It is filed as functional.
The target in assay [3] is T1, Endothelin-converting enzyme 1 (Homo sapiens, UniProt P42892).
T1 sequence (P42892 whole entry): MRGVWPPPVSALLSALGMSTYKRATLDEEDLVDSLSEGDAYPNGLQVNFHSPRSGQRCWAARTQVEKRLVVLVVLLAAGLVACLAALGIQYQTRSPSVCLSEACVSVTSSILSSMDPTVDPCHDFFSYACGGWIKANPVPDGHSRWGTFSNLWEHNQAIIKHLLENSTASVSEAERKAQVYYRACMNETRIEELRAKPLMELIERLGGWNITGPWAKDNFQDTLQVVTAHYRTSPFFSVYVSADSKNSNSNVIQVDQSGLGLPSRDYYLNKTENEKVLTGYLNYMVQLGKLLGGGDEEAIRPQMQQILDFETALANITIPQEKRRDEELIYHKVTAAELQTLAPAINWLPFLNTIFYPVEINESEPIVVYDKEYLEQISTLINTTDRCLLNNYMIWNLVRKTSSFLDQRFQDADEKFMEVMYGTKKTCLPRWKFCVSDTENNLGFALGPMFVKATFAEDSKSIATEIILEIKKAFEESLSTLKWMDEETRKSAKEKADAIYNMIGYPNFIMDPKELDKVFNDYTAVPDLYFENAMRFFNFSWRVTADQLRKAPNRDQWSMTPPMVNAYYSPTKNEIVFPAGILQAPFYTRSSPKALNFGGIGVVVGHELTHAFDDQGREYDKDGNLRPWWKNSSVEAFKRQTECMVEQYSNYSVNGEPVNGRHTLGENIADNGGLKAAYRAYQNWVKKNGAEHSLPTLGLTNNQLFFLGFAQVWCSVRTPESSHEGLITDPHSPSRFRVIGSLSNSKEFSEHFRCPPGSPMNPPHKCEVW
In words: Inhibitory activity against Endothelin-converting enzyme 1.

In the next assay the test system is Haemophilus influenzae. The assay is described as follows: In vitro antibacterial activity against Haemophilus influenzae 11. It is filed as functional.
A further assay has as its target Collagenase 3 (Homo sapiens, UniProt P45452). In words: Inhibition of Matrix metalloprotease-13.
For another assay, the target named is T2, Interstitial collagenase (Homo sapiens, UniProt P03956).
T2 sequence (P03956 whole entry): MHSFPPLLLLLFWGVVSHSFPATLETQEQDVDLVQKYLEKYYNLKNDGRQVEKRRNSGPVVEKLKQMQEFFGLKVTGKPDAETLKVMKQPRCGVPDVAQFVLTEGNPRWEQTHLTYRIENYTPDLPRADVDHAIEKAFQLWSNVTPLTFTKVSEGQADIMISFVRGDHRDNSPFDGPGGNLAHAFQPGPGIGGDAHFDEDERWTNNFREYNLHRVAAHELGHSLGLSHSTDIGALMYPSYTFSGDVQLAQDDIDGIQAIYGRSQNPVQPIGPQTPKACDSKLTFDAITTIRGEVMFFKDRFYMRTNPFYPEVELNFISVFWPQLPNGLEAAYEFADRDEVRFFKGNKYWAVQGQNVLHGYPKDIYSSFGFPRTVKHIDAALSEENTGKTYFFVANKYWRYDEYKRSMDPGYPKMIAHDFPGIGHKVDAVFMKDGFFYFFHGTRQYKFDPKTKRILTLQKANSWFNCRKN
In words: Inhibition of Matrix metalloprotease-1.

Assay [4] has as its target Macrophage metalloelastase (Homo sapiens, UniProt P39900). The assay is described as follows: Inhibition of human Matrix metalloprotease-12.
In a further assay the test system is Moraxella catarrhalis. In words: In vitro antibacterial activity against isolated Moraxella catarrhalis RA21. It is filed as functional.
Assay [5] relates to Mycoplasmoides pneumoniae. In words: In vitro antibacterial activity against Mycoplasma pneumoniae ATCC 29342. It is filed as functional.
The target of assay [6] is T3, Neprilysin (Rattus norvegicus, UniProt P07861).
T3 sequence (P07861 whole entry): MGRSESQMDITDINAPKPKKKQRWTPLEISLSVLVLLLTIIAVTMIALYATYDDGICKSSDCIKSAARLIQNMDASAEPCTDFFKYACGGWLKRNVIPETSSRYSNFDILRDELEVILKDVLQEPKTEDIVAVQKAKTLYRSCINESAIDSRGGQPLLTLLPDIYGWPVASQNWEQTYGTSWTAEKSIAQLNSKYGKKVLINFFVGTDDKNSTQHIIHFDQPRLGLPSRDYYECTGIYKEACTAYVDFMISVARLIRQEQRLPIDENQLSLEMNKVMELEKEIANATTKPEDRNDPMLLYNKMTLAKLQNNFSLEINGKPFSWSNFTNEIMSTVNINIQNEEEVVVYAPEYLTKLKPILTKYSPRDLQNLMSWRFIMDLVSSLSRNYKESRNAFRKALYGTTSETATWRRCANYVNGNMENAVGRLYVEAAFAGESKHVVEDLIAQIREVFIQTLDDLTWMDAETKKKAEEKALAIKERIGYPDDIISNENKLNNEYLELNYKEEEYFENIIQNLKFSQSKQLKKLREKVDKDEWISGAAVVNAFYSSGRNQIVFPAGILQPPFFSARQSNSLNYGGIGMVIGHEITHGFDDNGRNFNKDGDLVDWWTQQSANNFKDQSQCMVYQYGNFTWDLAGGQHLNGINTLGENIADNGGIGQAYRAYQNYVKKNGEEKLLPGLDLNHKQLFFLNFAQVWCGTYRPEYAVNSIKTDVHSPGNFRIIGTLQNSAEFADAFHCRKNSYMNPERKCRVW
In words: Inhibitory activity against endopeptidase enzyme (NEP).

In another assay the test system is Pseudomonas aeruginosa. The assay is described as follows: In vitro antibacterial activity against Pseudomonas aeruginosa ATCC 27853. It is filed as functional.
A further assay concerns Staphylococcus aureus. In words: In vitro antibacterial activity against Staphylococcus aureus ATCC 25923. It is filed as functional.
Assay [7] relates to Streptococcus pneumoniae. In words: In vitro antibacterial activity against Streptococcus pneumoniae ATCC 49619. It is filed as functional.
In assay [8] the target is Angiotensin-converting enzyme (Homo sapiens, UniProt P12821).
The next assay addresses T4, Peptide deformylase (Escherichia coli, UniProt Q9JN24).
T4 sequence (Q9JN24 whole entry): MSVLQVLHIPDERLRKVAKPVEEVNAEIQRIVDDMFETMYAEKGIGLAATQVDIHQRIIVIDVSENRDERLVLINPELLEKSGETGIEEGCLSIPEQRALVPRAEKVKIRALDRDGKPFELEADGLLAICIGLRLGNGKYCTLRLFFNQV
In words: Inhibitory activity against isolated Escherichia coli peptidyl deformylase (PDF) enzyme containing iron.

For another assay, the system named is Enterococcus faecalis. In words: In vitro antibacterial activity against Enterococcus faecalis ATCC 29212. It is filed as functional.
A further assay deals with Enterococcus faecium. In words: In vitro antibacterial activity against Enterococcus faecium vanA E25_1. It is filed as functional.
Assay [9] concerns the target T3, Neprilysin. In words: Inhibitory activity against neutral endopeptidase enzyme (NEP).
The nature of assay [10]: Inhibitory activity against PDF isolated from Bacillus subtilis.
In assay [11] the test system is Stenotrophomonas maltophilia. The assay is described as follows: In vitro antibacterial activity against Stenotrophomonas maltophilia 1AC739. It is filed as functional.
Assay [12] concerns Streptococcus pneumoniae. The assay is described as follows: In vitro antibacterial activity against Streptococcus pneumoniae 1/1 (penicillin resistant). It is filed as functional.
Assay [13] has as its system peptide deformylase (Streptococcus pneumoniae). The assay is described as follows: Inhibitory activity against PDF isolated from Streptococcus pneumoniae.

Chain of Angiotensin-converting enzyme (P12821 whole entry): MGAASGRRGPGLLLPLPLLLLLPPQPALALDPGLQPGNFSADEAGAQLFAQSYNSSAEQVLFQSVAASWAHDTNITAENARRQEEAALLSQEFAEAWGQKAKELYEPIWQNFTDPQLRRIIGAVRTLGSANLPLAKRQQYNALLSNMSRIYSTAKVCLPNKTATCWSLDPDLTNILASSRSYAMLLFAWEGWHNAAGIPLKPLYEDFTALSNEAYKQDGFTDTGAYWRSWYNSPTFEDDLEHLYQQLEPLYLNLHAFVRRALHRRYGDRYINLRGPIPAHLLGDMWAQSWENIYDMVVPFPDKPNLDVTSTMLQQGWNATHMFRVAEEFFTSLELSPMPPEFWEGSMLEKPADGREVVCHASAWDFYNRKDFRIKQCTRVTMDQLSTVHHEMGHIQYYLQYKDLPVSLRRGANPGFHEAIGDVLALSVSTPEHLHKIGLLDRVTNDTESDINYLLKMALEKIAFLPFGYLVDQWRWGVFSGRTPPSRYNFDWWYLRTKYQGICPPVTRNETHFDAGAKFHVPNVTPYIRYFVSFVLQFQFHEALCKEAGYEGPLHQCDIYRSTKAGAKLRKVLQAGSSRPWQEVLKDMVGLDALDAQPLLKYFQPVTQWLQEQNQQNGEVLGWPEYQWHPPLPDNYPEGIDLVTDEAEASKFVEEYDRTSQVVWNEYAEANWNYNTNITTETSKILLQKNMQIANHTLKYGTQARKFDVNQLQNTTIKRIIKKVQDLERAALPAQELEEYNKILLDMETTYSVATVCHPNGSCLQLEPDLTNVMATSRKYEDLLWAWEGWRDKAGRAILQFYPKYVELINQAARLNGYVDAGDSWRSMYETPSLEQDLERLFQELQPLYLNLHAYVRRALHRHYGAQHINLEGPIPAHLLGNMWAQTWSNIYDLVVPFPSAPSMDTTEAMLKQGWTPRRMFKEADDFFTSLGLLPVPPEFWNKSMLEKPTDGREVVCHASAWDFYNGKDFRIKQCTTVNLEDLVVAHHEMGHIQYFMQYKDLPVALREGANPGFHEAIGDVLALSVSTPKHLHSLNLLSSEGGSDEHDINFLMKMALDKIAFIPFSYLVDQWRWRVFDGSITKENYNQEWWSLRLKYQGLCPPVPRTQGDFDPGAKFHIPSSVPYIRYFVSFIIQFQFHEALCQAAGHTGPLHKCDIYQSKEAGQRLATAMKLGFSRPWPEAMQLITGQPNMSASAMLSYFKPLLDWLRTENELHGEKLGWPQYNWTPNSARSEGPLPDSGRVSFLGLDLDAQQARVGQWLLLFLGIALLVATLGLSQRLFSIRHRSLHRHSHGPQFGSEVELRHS
Chain of Macrophage metalloelastase (P39900 whole entry): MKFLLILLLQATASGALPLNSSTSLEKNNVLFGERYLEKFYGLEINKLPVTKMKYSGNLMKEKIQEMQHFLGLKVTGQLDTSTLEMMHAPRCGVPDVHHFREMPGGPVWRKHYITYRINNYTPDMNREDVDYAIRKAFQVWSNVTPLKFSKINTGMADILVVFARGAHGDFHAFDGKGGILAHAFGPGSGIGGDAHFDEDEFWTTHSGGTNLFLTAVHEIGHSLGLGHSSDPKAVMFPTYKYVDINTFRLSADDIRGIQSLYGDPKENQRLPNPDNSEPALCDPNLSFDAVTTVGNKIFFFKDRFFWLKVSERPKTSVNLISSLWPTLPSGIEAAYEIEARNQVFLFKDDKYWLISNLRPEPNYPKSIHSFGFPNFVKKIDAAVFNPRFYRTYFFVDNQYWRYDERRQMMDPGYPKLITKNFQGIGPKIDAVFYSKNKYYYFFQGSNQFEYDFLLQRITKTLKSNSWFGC

For `CCCC[C@H](CC(=O)NO)S(=O)(=O)c1ccccc1`, the MIC in the assay with Bacillus subtilis was 1 µg/mL (≈ 3.5 µM); against Chlamydia pneumoniae, 0.5 µg/mL (≈ 1.75 µM); against Escherichia coli [1] it was 128 µg/mL (≈ 449 µM); in the assay on Escherichia coli [2], 2 µg/mL (≈ 7.01 µM); against Haemophilus influenzae, 2 µg/mL (≈ 7.01 µM); in the assay on Moraxella catarrhalis, less than 0.25 µg/mL. Besides, the MIC is 0.5 µg/mL (≈ 1.75 µM) in assay [5], more than 128 µg/mL against Pseudomonas aeruginosa, 128 µg/mL (≈ 449 µM) against Staphylococcus aureus and 128 µg/mL (≈ 449 µM) against Streptococcus pneumoniae [7]. The IC50 in assay [3] was more than 100000 nM; against Collagenase 3, 79 nM; at Interstitial collagenase, 150 nM; in assay [4], 42 nM; against Neprilysin [6], 2500 nM; in assay [8], 34000 nM.
On to `CCCC[C@@H](CC(=O)NO)S(=O)(=O)c1ccccc1`, for which the results for the MIC in the assay with Escherichia coli [2] and against Moraxella catarrhalis were more than 128 µg/mL and 16 µg/mL (≈ 56.1 µM), respectively. Besides, the IC50 in assay [3] is more than 100000 nM; at Collagenase 3, 18 nM; on Interstitial collagenase, 300 nM; in assay [4] it was 9 nM; at Neprilysin [6], 15000 nM; in [8], more than 100000 nM.
Regarding `CC(CC(=O)NO)S(=O)(=O)c1ccccc1` (centres undefined), the MIC in the assay on Escherichia coli [2] and in the assay with Moraxella catarrhalis was more than 32 µg/mL in each case.
As to `CCCCC(CC(=O)NO)[S+]([O-])c1ccc(Br)cc1` (centres undefined), the MIC with Escherichia coli [2] is 1 µg/mL (≈ 2.87 µM); against Moraxella catarrhalis, less than 0.125 µg/mL. The same compound displayed an IC50 against Peptide deformylase of 210 nM.
Consider `CCCCC(CC(=O)NO)S(=O)(=O)c1cccc(OC)c1` (centres undefined), for which the MIC with Escherichia coli [2] came out at 16 µg/mL (≈ 50.7 µM); in the assay with Moraxella catarrhalis, 2 µg/mL (≈ 6.34 µM). Further, the IC50 against Peptide deformylase is 86 nM.
Regarding `CCCCC(CC(=O)NO)S(=O)(=O)c1ccc(OC)cc1` (centres undefined), the MIC with Escherichia coli [2] stood at 16 µg/mL (≈ 50.7 µM); against Moraxella catarrhalis, 0.5 µg/mL (≈ 1.59 µM). The IC50 at Peptide deformylase was found to be 31 nM.
Consider `CCCC[C@H](C(O)C(=O)NO)[S+]([O-])c1ccccc1` (some centres undefined), for which the MIC against Escherichia coli [2] is 1 µg/mL (≈ 3.5 µM); against Moraxella catarrhalis, less than 0.06 µg/mL.
Take `CCCC[C@@H](C(O)C(=O)NO)[S+]([O-])c1ccccc1` (some centres undefined): the MIC against Escherichia coli [2] was 32 µg/mL (≈ 112 µM); in the assay with Moraxella catarrhalis, 4 µg/mL (≈ 14 µM).
For `CCCCCC(CC(=O)NO)S(=O)(=O)c1ccccc1` (centres undefined), the values for the MIC in the assay on Escherichia coli [2] and in the assay with Moraxella catarrhalis were 2 µg/mL (≈ 6.68 µM) and less than 0.06 µg/mL, respectively. On Peptide deformylase, this compound yielded an IC50 of 140 nM.
On to `CCCCC(CC(=O)NO)[S+]([O-])c1ccccc1` (centres undefined), for which the MIC is 0.25 µg/mL (≈ 0.928 µM) in the assay with Bacillus subtilis; 0.25 µg/mL (≈ 0.928 µM) in the assay with Chlamydia pneumoniae; 32 µg/mL (≈ 119 µM) against Escherichia coli [1]; more than 128 µg/mL in the assay with Enterococcus faecalis; 1 µg/mL (≈ 3.71 µM) in the assay with Escherichia coli [2]; more than 128 µg/mL in the assay with Enterococcus faecium. For the same compound, the MIC in the assay with Haemophilus influenzae was 1 µg/mL (≈ 3.71 µM); in the assay with Moraxella catarrhalis, less than 0.25 µg/mL; in assay [5], 0.25 µg/mL (≈ 0.928 µM); in the assay with Pseudomonas aeruginosa, more than 128 µg/mL; against Staphylococcus aureus it was 16 µg/mL (≈ 59.4 µM); against Streptococcus pneumoniae [7], 32 µg/mL (≈ 119 µM). Besides, the MIC in [11] was less than 0.25 µg/mL; against Streptococcus pneumoniae [12], 64 µg/mL (≈ 238 µM). Further, the IC50 in [3] was more than 100000 nM; against Interstitial collagenase, 93 nM; against Neprilysin [9] it was 2600 nM; in assay [10], 46 nM; in [8], more than 100000 nM; in assay [13] it was 240 nM.
In the case of `CCCCCCS(=O)(=O)C(CCCC)CC(=O)NO` (centres undefined), the MIC against Escherichia coli [2] is 64 µg/mL (≈ 218 µM); against Moraxella catarrhalis, 4 µg/mL (≈ 13.6 µM).
